Assays:
[1] = tested on: naive hESCs/hiPSCs; experiment: Substitution of p38 inhibitor in WIS-NHSM, OCT4-GFP expression; type: cell-based, human; details: used instead of SB203580 in WIS-NHSM
[2] = tested on: naive cells; experiment: Pluripotency (Oct4-GFP) after passaging with DNA methylation or EED inhibitors; type: cell-based, human and mouse; details: Oct4-GFP reporter
[3] = target: T1, PKCμ (Homo sapiens, UniProt Q15139); details: read-out: IC50 for PKCp; cited from earlier work
T1 sequence (Q15139 1-912): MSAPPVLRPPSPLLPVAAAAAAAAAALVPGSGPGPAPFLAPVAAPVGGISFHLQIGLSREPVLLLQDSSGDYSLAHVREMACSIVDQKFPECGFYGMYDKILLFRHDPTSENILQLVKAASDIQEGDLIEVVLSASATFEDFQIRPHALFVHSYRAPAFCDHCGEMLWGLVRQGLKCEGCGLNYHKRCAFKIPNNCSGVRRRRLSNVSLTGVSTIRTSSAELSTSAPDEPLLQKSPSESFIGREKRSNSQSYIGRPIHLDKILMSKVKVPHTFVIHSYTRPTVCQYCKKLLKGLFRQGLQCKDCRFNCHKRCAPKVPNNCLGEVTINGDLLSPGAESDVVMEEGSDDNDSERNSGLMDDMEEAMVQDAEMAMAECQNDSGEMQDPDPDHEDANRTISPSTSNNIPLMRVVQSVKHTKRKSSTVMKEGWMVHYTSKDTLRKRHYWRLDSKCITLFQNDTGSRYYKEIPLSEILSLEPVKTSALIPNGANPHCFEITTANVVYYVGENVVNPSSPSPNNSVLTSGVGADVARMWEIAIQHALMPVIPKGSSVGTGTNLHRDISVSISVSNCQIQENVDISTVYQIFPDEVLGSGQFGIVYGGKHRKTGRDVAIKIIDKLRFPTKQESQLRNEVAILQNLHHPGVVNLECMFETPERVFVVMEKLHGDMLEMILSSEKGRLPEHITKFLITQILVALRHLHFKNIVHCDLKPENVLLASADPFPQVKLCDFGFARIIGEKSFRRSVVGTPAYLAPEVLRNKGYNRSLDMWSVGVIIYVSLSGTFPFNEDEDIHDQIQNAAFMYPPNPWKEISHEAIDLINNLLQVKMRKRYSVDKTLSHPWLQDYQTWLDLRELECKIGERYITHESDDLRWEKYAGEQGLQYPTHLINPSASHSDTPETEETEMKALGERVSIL

[4] = target: T2, PKCζ (Homo sapiens, UniProt Q05513); details: read-out: IC50 for PKC; cited from earlier work
T2 sequence (Q05513 1-592): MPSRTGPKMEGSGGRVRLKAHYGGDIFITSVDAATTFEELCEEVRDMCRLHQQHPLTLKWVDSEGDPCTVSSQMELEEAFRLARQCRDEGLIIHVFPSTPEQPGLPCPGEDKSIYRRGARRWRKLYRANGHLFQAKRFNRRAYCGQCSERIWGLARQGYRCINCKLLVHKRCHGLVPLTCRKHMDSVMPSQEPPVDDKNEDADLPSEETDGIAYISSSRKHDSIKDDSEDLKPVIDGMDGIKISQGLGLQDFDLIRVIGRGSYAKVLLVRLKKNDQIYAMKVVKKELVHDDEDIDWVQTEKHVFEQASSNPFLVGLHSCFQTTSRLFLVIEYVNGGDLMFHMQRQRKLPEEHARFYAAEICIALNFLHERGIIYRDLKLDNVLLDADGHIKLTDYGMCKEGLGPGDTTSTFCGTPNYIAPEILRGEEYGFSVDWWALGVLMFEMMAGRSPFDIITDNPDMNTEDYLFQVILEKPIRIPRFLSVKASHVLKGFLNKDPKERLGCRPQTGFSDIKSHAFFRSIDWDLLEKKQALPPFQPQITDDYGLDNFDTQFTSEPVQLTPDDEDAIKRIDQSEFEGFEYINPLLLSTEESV

[5] = target: PKCα (Homo sapiens, UniProt P17252); details: read-out: IC50 for PKCu; cited from earlier work
[6] = target: PKCγ (Homo sapiens, UniProt P05129); details: read-out: IC50 for PKCy; cited from earlier work
[7] = tested on: MBD3; experiment: Western blot for MBD3 protein expression in V6.5 mouse ES cells after 4 days treatment; type: cell-based; details: 2i/LIF plus agent at 5 micromolar
Excerpt: FIGS. 1O1A-101B are Western blot analyses showing expression of MBD3 (FIG. 101B) and of HSP90 (FIG. 101A) in v6.5 mouse ES cells after different treatments. V6.5 mouse ES cells were expanded for 4 days in the indicated conditions and subjected to Western blot analysis for MBD3 protein expression. Following are the abbreviations and concentrations of the indicated factors and agents. PBS=phosphate buffered saline; “LIF”=leukemia inhibitory factor, provided at a concentration of 20 nanograms/milliliter (ng/ml); KSR=knockout serum replacement; “2i/LIF”=small-molecule inhibitors CHIR99021 (CH, 3 M—Axon Medchem) and PD0325901 (PD, 1 M—TOCRIS), with 20 ng/ml LIF; “DMSO”=Dimethyl sulfoxide at a concentration of 0.1%; TGFRi (inhibitor of transforming growth factor receptor; SB431542 at 5 micromolar); PKC-i (inhibitor of protein kinase C; Go6983 at 5 micromolar).
V6.5 mouse ES cells were expanded for 4 days in various conditions in order to identify combination of factors which result in reduced MBD3 protein levels.

[8] = target: PKCδ (Homo sapiens, UniProt Q05655); details: read-out: IC50 for PKC6; cited from earlier work
[9] = target: PKCβ (Homo sapiens, UniProt P05771); details: read-out: IC50 for PKC0; cited from earlier work
[10] = tested on: naive hPSCs; experiment: Single-cell cloning efficiency, naive cells; type: cell-based, human; details: in the presence of ROCK inhibitor
Excerpt: (§1) FIGS. 74A-74D depict enhanced growth rate and single cell cloning efficiency of human naive pluripotent stem cells. FIG. 74A—Population doubling time of various mouse and human pluripotent stem cell lines. After plating each cell lines in replicates, cells were harvested at days 2,4 and 6 and there growth was normalized by counting cell number at each stage and calculating growth rate relative to the number of cells harvested and counted at day 2 (rather than number of plated cells to account for variability in survival after plating). Error bars represent s.d., and P values represent t-test of average from primed hESC/hiPSC lines to average of naive hESC/hiPSC lines. FIG. 74B—Single-cell cloning efficiency of different pluripotent stem cell lines as determined by the number of wells containing NANOG+ colonies 6 days after plating (with or without ROCK inhibitor as indicated in the figure). * indicates student's t-test P value <0.01 between the average of the compared groups. Error bars indicate s.d. […] Single-cell cloning efficiency of different pluripotent stem cell lines as determined by the number of wells containing Nanog+ colonies 6 days after plating (without using ROCK inhibitor as indicated in the figure). * indicates student's t-test P value <0.01 between the average of the compared groups. […]

[11] = tested on: primed hESCs and hiPSCs; experiment: Single-cell cloning efficiency, primed cells; type: cell-based, human; details: in the presence of ROCK inhibitor
Excerpt: as §1

[12] = target: T3, Mbd3 binding to Chd4 (Homo sapiens, UniProt O95983); experiment: Co-immunoprecipitation of Flag-Mbd3 interacting proteins in 293T cells; type: cell-based; details: Flag-Mbd3 IP
T3 construct: expressed in transfected cells; host or cells: 293T cells
T3 sequence (O95983 1-291): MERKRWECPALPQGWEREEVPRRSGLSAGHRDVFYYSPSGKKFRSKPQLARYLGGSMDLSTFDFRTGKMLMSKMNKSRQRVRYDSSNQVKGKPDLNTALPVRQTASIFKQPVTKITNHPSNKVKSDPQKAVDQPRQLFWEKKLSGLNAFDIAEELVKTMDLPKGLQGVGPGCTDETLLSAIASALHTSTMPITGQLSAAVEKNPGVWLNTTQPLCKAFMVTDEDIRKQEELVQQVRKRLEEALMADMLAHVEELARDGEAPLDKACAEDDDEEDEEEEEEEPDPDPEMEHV
Excerpt: 293T cells were transfected with both with Flag-Mbd3 (WT) and P66a-CC (SEQ ID NO:71; GenBank Accession NO. NM_017660.3) or a control vector (mCherry), Mbd3 15 interacting proteins were pulled down by immunoprecipitation (IP) using Flag-magnetic beads.
The present inventors overexpressed MBD3-WT (SEQ ID NO: 112) and the HA-tagged p66u-CC in 293T cells, and further show in a co-immunoprecipitation for anti-Mbd3 pulldown, that the presence of p66u inhibits MBD3 binding and recruitment to CHD4 (FIG. 93).

PKCβ, sequence (P05771 whole entry, species assumed): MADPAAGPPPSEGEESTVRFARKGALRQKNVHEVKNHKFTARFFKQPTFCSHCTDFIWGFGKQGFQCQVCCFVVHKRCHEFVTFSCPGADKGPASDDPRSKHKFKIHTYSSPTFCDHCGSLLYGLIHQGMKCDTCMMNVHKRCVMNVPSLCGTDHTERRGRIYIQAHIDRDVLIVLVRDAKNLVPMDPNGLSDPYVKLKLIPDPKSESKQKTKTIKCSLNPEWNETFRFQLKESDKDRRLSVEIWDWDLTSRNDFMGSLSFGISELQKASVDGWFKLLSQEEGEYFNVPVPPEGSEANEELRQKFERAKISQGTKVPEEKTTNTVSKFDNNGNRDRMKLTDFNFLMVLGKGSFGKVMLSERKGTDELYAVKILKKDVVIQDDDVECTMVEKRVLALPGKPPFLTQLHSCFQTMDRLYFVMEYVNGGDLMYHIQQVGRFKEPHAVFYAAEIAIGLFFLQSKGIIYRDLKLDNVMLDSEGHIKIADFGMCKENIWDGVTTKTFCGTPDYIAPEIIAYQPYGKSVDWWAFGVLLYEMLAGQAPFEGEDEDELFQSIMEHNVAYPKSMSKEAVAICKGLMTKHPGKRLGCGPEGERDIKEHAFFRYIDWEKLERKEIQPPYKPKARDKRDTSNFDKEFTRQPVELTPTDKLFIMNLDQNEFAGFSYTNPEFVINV
PKCδ, sequence (Q05655 whole entry): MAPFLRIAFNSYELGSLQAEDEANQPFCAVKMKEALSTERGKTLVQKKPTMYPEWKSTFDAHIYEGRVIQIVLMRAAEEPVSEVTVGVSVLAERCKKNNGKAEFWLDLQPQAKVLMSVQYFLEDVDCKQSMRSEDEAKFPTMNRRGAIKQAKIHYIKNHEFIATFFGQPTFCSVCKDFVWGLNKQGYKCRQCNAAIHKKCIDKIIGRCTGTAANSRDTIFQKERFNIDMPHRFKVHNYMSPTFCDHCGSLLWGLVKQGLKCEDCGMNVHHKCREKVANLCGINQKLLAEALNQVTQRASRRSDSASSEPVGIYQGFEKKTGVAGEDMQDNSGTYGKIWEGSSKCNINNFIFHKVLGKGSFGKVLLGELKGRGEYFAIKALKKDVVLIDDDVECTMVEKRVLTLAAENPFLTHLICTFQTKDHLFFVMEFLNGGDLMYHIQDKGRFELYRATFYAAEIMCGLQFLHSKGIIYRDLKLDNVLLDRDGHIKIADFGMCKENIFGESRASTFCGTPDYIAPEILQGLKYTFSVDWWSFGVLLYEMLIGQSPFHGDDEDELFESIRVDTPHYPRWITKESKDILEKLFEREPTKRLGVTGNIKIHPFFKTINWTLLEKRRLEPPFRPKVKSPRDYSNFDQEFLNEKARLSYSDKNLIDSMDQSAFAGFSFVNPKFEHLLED

## Cc1ccc(-n2nc(C(C)(C)C)cc2NC(=O)Nc2ccc(OCCN3CCOCC3)c3ccccc23)cc1 [BIRB796]
[1]
  change in OCT4-GFP expression: without any change

## Nc1ncn([C@H]2C[C@H](O)[C@@H](CO)O2)c(=O)n1 [Condition 5d-AZA]
[2]
  pluripotency after passaging in presence of inhibitor: retain their pluripotency

## Nc1nccc2c1ncn2C1C=C(CO)C(O)C1O (stereo not shown) [DzNEP]
[2]
  pluripotency after passaging in presence of inhibitor: retain their pluripotency

## COc1ccc2c(c1)c(C1=C(c3c[nH]c4ccccc34)C(=O)NC1=O)cn2CCCN(C)C [Go6983]
[3]
  IC50: 20000 nM
[4]
  IC50: 60 nM
[5]
  IC50: 7 nM
[6]
  IC50: 6 nM
[7]
  MBD3 protein levels: significant depletion
[7]; listed as PKC inhibitor
  MBD3 protein levels: significant reduction
[8]
  IC50: 10 nM
[9]
  IC50: 7 nM

## C[C@@H](N)[C@H]1CC[C@H](C(=O)Nc2ccncc2)CC1 [ROCK inhibitor, Y-27632]
[10]
  single cell cloning efficiency: up to 88%
[11]
  single cell cloning efficiency: up to 22%

## Oc1ccc(-c2nc(-c3ccncc3)c(-c3ccc(F)cc3)[nH]2)cc1 [SB202190]
[1]
  change in OCT4-GFP expression: without any change

## NC(=O)c1ccc(-c2nc(-c3ccc4c(c3)OCO4)c(-c3ccccn3)[nH]2)cc1 [SB431542]
[7]
  MBD3 protein levels: did not affect

## P66a-CC: P66 alpha coiled-coil domain, SEQ ID NO:114, expressed by transfection (PEERERMIKQLKEELRLEEAKLVLLKKLRQSQIQKEATAQK; (1)..(41) P66 alpha coiled-coil domain; listed as Homo sapiens) [Condition P66a-CC]
[12]
  Chd4 interaction with Mbd3: specific loss of Chd4 interaction with Mbd3
